Results: ChEMBL document CHEMBL3885861, “Open TG-GATES”

Organism: Rattus norvegicus
Assay: Open TG-GATES - Regimen: Daily Repeat
Assay type: toxicity, organism-based, Sprague-Dawley
Design: regimen Daily Repeat, gender Male, age 6 weeks
Conditions: in vivo, po, route gavage; for APTT / Bas / Eos / Fbg / Hb / Ht / Lym / MCH / MCHC / MCV / Mono / Neu / PT / Plat / RBC / Ret / WBC: tissue Blood; for KIDNEY_L / KIDNEY_R / KIDNEY_TOTAL: tissue Kidney; for LIVER: tissue Liver; for A/G / ALP / ALT / AST / BUN / CRE / Ca / Cl / DBIL / GLC / IP / K / LDH / Na / PL / RALB / TBIL / TC / TG / TP / gamma-GTP: tissue Plasma
[1] = 0 mg/kg, 72 h, dose level Control, time 3 day
[2] = 0 mg/kg, […], dose level Control, time 7 day
[3] = 0 mg/kg, […], dose level Control, time 14 day
[4] = 0 mg/kg, […], dose level Control, time 28 day
[5] = 15 mg/kg, 72 h, dose level Low, time 3 day
[6] = 15 mg/kg, […], dose level Low, time 7 day
[7] = 15 mg/kg, […], dose level Low, time 14 day
[8] = 15 mg/kg, […], dose level Low, time 28 day

O=c1ccc2ccccc2o1 [COUMARIN]
TERMINAL_BW [1]: 197.7 g
APTT [1]: 16.2 s
Bas [1]: 0%
Eos [1]: 1.2%
Fbg [1]: 204.2 mg/dL
Hb [1]: 13.4 g/dL
Ht [1]: 40.7%
Lym [1]: 64.8%
MCH [1]: 21.6 pg
MCHC [1]: 32.8%
MCV [1]: 65.9 fL
Mono [1]: 9.8%
Neu [1]: 24.2%
PT [1]: 11.8 s
Plat [1]: 97.8 x10_4/uL
RBC [1]: 617.8 x10_4/ul
Ret [1]: 8%
WBC [1]: 95.9 x10_2/uL
KIDNEY_L [1]: 0.9 g
KIDNEY_R [1]: 0.9 g
KIDNEY_TOTAL [1]: 1.9 g
LIVER [1]: 9.7 g
A/G [1]: 2.1
ALP [1]: 849.4 IU/L
ALT [1]: 39.8 IU/L
AST [1]: 68.6 IU/L
BUN [1]: 15.2 mg/dL
CRE [1]: 0.5 mg/dL
Ca [1]: 10.7 mg/dL
Cl [1]: 104.8 meq/L
DBIL [1]: 0.036 mg/dL
GLC [1]: 204.6 mg/dL
IP [1]: 8 mg/dL
K [1]: 4.9 meq/L
LDH [1]: 87.4 IU/L
Na [1]: 138.8 meq/L
PL [1]: 134.6 mg/dL
RALB [1]: 3.8 g/dL
TBIL [1]: 0.3 mg/dL
TC [1]: 79.6 mg/dL
TG [1]: 58.6 mg/dL
TP [1]: 5.6 g/dL
gamma-GTP [1]: 1 IU/L
TERMINAL_BW [2]: 227.5 g
TERMINAL_BW [3]: 286.1 g
TERMINAL_BW [4]: 359.5 g
APTT [2]: 16.5 s
Bas [2]: 0%
Eos [2]: 0.6%
Fbg [2]: 218.4 mg/dL
Hb [2]: 13.8 g/dL
Ht [2]: 41.6%
Lym [2]: 83.4%
MCH [2]: 21.3 pg
MCHC [2]: 33.2%
MCV [2]: 64.1 fL
Mono [2]: 4%
Neu [2]: 11.8%
PT [2]: 12 s
Plat [2]: 108.5 x10_4/uL
RBC [2]: 649.8 x10_4/ul
Ret [2]: 6.1%
WBC [2]: 145 x10_2/uL
APTT [3]: 16.7 s
Bas [3]: 0.2%
Eos [3]: 0.6%
Fbg [3]: 230.2 mg/dL
Hb [3]: 14.2 g/dL
Ht [3]: 42.9%
Lym [3]: 81%
MCH [3]: 20.6 pg
MCHC [3]: 33.2%
MCV [3]: 62 fL
Mono [3]: 7.4%
Neu [3]: 10.8%
PT [3]: 11.7 s
Plat [3]: 117.6 x10_4/uL
RBC [3]: 692.4 x10_4/ul
Ret [3]: 4.8%
WBC [3]: 114.9 x10_2/uL
APTT [4]: 17.8 s
Bas [4]: 0.2%
Eos [4]: 1.2%
Fbg [4]: 225 mg/dL
Hb [4]: 15.1 g/dL
Ht [4]: 45.2%
Lym [4]: 79.6%
MCH [4]: 19.6 pg
MCHC [4]: 33.4%
MCV [4]: 58.8 fL
Mono [4]: 5%
Neu [4]: 13.8%
PT [4]: 12 s
Plat [4]: 101 x10_4/uL
RBC [4]: 769 x10_4/ul
Ret [4]: 2.8%
WBC [4]: 128.8 x10_2/uL
KIDNEY_L [2]: 1 g
KIDNEY_R [2]: 1 g
KIDNEY_TOTAL [2]: 2 g
KIDNEY_L [3]: 1.2 g
KIDNEY_R [3]: 1.2 g
KIDNEY_TOTAL [3]: 2.3 g
KIDNEY_L [4]: 1.4 g
KIDNEY_R [4]: 1.4 g
KIDNEY_TOTAL [4]: 2.7 g
LIVER [2]: 11.4 g
LIVER [3]: 14 g
LIVER [4]: 16.1 g
A/G [2]: 2.2
ALP [2]: 954.6 IU/L
ALT [2]: 35.6 IU/L
AST [2]: 58 IU/L
BUN [2]: 17.8 mg/dL
CRE [2]: 0.6 mg/dL
Ca [2]: 10.6 mg/dL
Cl [2]: 104.8 meq/L
DBIL [2]: 0.014 mg/dL
GLC [2]: 189.8 mg/dL
IP [2]: 7.5 mg/dL
K [2]: 4.9 meq/L
LDH [2]: 79.6 IU/L
Na [2]: 138.6 meq/L
PL [2]: 142.6 mg/dL
RALB [2]: 3.9 g/dL
TBIL [2]: 0.3 mg/dL
TC [2]: 70 mg/dL
TG [2]: 108.8 mg/dL
TP [2]: 5.7 g/dL
gamma-GTP [2]: 1.4 IU/L
A/G [3]: 2
ALP [3]: 840.4 IU/L
ALT [3]: 32.4 IU/L
AST [3]: 59 IU/L
BUN [3]: 17.2 mg/dL
CRE [3]: 0.6 mg/dL
Ca [3]: 10.8 mg/dL
Cl [3]: 106.2 meq/L
DBIL [3]: 0.08 mg/dL
GLC [3]: 192 mg/dL
IP [3]: 7.5 mg/dL
K [3]: 4.8 meq/L
LDH [3]: 84.8 IU/L
Na [3]: 139.4 meq/L
PL [3]: 165.8 mg/dL
RALB [3]: 4 g/dL
TBIL [3]: 0.3 mg/dL
TC [3]: 84 mg/dL
TG [3]: 104 mg/dL
TP [3]: 6 g/dL
gamma-GTP [3]: 1.4 IU/L
A/G [4]: 1.7
ALP [4]: 705.8 IU/L
ALT [4]: 31.2 IU/L
AST [4]: 54.2 IU/L
BUN [4]: 18.8 mg/dL
CRE [4]: 0.6 mg/dL
Ca [4]: 10.7 mg/dL
Cl [4]: 106 meq/L
DBIL [4]: 0.012 mg/dL
GLC [4]: 215 mg/dL
IP [4]: 6.5 mg/dL
K [4]: 4.5 meq/L
LDH [4]: 51 IU/L
Na [4]: 138.8 meq/L
PL [4]: 137.4 mg/dL
RALB [4]: 4 g/dL
TBIL [4]: 0.3 mg/dL
TC [4]: 63 mg/dL
TG [4]: 126 mg/dL
TP [4]: 6.4 g/dL
gamma-GTP [4]: 1 IU/L
TERMINAL_BW [5]: 198.3 g
APTT [5]: 15.1 s
Bas [5]: 0%
Eos [5]: 1%
Fbg [5]: 192.4 mg/dL
Hb [5]: 13.1 g/dL
Ht [5]: 39.5%
Lym [5]: 72.2%
MCH [5]: 21.5 pg
MCHC [5]: 33.2%
MCV [5]: 64.8 fL
Mono [5]: 9.8%
Neu [5]: 17%
PT [5]: 11.6 s
Plat [5]: 110.7 x10_4/uL
RBC [5]: 608.6 x10_4/ul
Ret [5]: 7.9%
WBC [5]: 108.8 x10_2/uL
KIDNEY_L [5]: 0.9 g
KIDNEY_R [5]: 0.9 g
KIDNEY_TOTAL [5]: 1.8 g
LIVER [5]: 10.1 g
A/G [5]: 2.1
ALP [5]: 921.6 IU/L
ALT [5]: 40.6 IU/L
AST [5]: 68 IU/L
BUN [5]: 14.8 mg/dL
CRE [5]: 0.5 mg/dL
Ca [5]: 10.8 mg/dL
Cl [5]: 104.6 meq/L
DBIL [5]: 0.02 mg/dL
GLC [5]: 190 mg/dL
IP [5]: 8.3 mg/dL
K [5]: 4.9 meq/L
LDH [5]: 78.2 IU/L
Na [5]: 138.8 meq/L
PL [5]: 150 mg/dL
RALB [5]: 3.7 g/dL
TBIL [5]: 0.3 mg/dL
TC [5]: 89.2 mg/dL
TG [5]: 68 mg/dL
TP [5]: 5.5 g/dL
gamma-GTP [5]: 1.6 IU/L
TERMINAL_BW [6]: 228.4 g
TERMINAL_BW [7]: 282.9 g
TERMINAL_BW [8]: 347.7 g
APTT [6]: 16 s
Bas [6]: 0%
Eos [6]: 1%
Fbg [6]: 223.8 mg/dL
Hb [6]: 13.9 g/dL
Ht [6]: 42%
Lym [6]: 81.6%
MCH [6]: 21.3 pg
MCHC [6]: 33%
MCV [6]: 64.4 fL
Mono [6]: 5.2%
Neu [6]: 12.4%
PT [6]: 11.5 s
Plat [6]: 119 x10_4/uL
RBC [6]: 653.2 x10_4/ul
Ret [6]: 6.1%
WBC [6]: 129.6 x10_2/uL
APTT [7]: 17.1 s
Bas [7]: 0%
Eos [7]: 0.6%
Fbg [7]: 225.6 mg/dL
Hb [7]: 13.9 g/dL
Ht [7]: 41.8%
Lym [7]: 82.6%
MCH [7]: 20.4 pg
MCHC [7]: 33.3%
MCV [7]: 61.2 fL
Mono [7]: 4.8%
Neu [7]: 12%
PT [7]: 11.4 s
Plat [7]: 118.1 x10_4/uL
RBC [7]: 683 x10_4/ul
Ret [7]: 4.8%
WBC [7]: 144.2 x10_2/uL
APTT [8]: 18.3 s
Bas [8]: 0%
Eos [8]: 1.2%
Fbg [8]: 217.2 mg/dL
Hb [8]: 14.8 g/dL
Ht [8]: 44%
Lym [8]: 80%
MCH [8]: 19.9 pg
MCHC [8]: 33.5%
MCV [8]: 59.3 fL
Mono [8]: 8%
Neu [8]: 11%
PT [8]: 11.8 s
Plat [8]: 108.5 x10_4/uL
RBC [8]: 743.6 x10_4/ul
Ret [8]: 3%
WBC [8]: 134.3 x10_2/uL
KIDNEY_L [6]: 1 g
KIDNEY_R [6]: 1 g
KIDNEY_TOTAL [6]: 2 g
KIDNEY_L [7]: 1.1 g
KIDNEY_R [7]: 1.1 g
KIDNEY_TOTAL [7]: 2.3 g
KIDNEY_L [8]: 1.3 g
KIDNEY_R [8]: 1.3 g
KIDNEY_TOTAL [8]: 2.6 g
LIVER [6]: 11.6 g
LIVER [7]: 14.2 g
LIVER [8]: 16.4 g
A/G [6]: 2.1
ALP [6]: 1042 IU/L
ALT [6]: 34.2 IU/L
AST [6]: 53.8 IU/L
BUN [6]: 16 mg/dL
CRE [6]: 0.5 mg/dL
Ca [6]: 10.9 mg/dL
Cl [6]: 104.8 meq/L
DBIL [6]: 0.022 mg/dL
GLC [6]: 192 mg/dL
IP [6]: 7.4 mg/dL
K [6]: 5 meq/L
LDH [6]: 85.4 IU/L
Na [6]: 138.4 meq/L
PL [6]: 178.6 mg/dL
RALB [6]: 4 g/dL
TBIL [6]: 0.3 mg/dL
TC [6]: 97.6 mg/dL
TG [6]: 96 mg/dL
TP [6]: 6 g/dL
gamma-GTP [6]: 2 IU/L
A/G [7]: 1.9
ALP [7]: 761.8 IU/L
ALT [7]: 40 IU/L
AST [7]: 59 IU/L
BUN [7]: 18.2 mg/dL
CRE [7]: 0.5 mg/dL
Ca [7]: 10.9 mg/dL
Cl [7]: 106 meq/L
DBIL [7]: 0.042 mg/dL
GLC [7]: 194.6 mg/dL
IP [7]: 6.6 mg/dL
K [7]: 5.1 meq/L
LDH [7]: 87 IU/L
Na [7]: 138.2 meq/L
PL [7]: 171.2 mg/dL
RALB [7]: 4 g/dL
TBIL [7]: 0.3 mg/dL
TC [7]: 84.4 mg/dL
TG [7]: 116.8 mg/dL
TP [7]: 6.1 g/dL
gamma-GTP [7]: 1.2 IU/L
A/G [8]: 1.7
ALP [8]: 681.4 IU/L
ALT [8]: 33.2 IU/L
AST [8]: 52.4 IU/L
BUN [8]: 19.6 mg/dL
CRE [8]: 0.6 mg/dL
Ca [8]: 10.8 mg/dL
Cl [8]: 107.4 meq/L
DBIL [8]: 0.012 mg/dL
GLC [8]: 187.6 mg/dL
IP [8]: 6.7 mg/dL
K [8]: 4.3 meq/L
LDH [8]: 46.4 IU/L
Na [8]: 139.4 meq/L
PL [8]: 145.6 mg/dL
RALB [8]: 4.2 g/dL
TBIL [8]: 0.4 mg/dL
TC [8]: 70.8 mg/dL
TG [8]: 123.8 mg/dL
TP [8]: 6.6 g/dL
gamma-GTP [8]: 1 IU/L
